SMILES strings stand for the structures.

What all share (format): cell-based
Test [1] deals with T1, CFTR ΔF508 (Homo sapiens, UniProt P13569, DEL508-508).
T1 construct: bronchial epithelial cells isolated from CF patients homozygous for the CFTR ΔF508 mutation; McGill University; Asterand; University of North Carolina hAEC-CF; host or cells: primary human bronchial epithelial cells from CF patients homozygous for ΔF508, differentiated at air-liquid interface
Description: Chronic TECC assay, primary bronchial epithelial cells of CF patients homozygous for CFTR ΔF508 (corrector, co-corrector and potentiator). As to conditions: chronic TECC, AUC = full area under the curve upon forskolin stimulation; for % Activity at 1 μM (AUC**): test compound at 1 μM; for % Activity at 3 μM (AUC**): test compound at 3 μM. In short, it runs like this: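 Primary bronchial epithelial cells from ΔF508-homozygous CF patients on collagen IV-coated Transwells were chronically treated with test compound plus corrector and potentiator, which were re-added before recording. Ieq was derived from PD and Rt in NaCl-Ringer, pH 7.4, at 37° C, with apical amiloride and bilateral forskolin, recorded every 2 min over 20 min. Ieq increase was normalized to controls, and EC50 was taken from per-well concentrations.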

Test [2] concerns the target T2, ΔF508-CFTR (Homo sapiens, UniProt P13569, DEL508-508).
T2 construct: host or cells: CFBE41o-, doxycycline-inducible
Description: CFTR cell surface levels using HRP-tagged ΔF508-CFTR expressing CFBE cells, intrinsic corrector capacity. The conditions noted are these: HRP-tagged ΔF508-CFTR expressing CFBE41o- cells, compound alone (intrinsic corrector capacity), 20 hours at 33° C.; for EC50: read-out: EC50. Details: % Activation: concentration or dose not given beside the values. In outline: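 Surface ΔF508-CFTR was measured as HRP chemiluminescence from an extracellular-loop-4 tag, expressed as percent activity between DMSO and a […] corrector control.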

Test [3] addresses T2, ΔF508-CFTR. Kind of test: CFTR cell surface levels using HRP-tagged ΔF508-CFTR expressing CFBE cells, in the presence of a co-corrector. The conditions noted are these: HRP-tagged ΔF508-CFTR CFBE cells, in the presence of 3 μM co-corrector; for EC50: read-out: EC50. In short, it runs like this: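 Chemiluminescent read-out of surface HRP (15 min, dark) after PBS washes. Activity is normalized as 100×(sample−DMSO)/(3 μM co-corrector alone−DMSO).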

T2 sequence (P13569 with tags, fused parts or gaps DEL508-508): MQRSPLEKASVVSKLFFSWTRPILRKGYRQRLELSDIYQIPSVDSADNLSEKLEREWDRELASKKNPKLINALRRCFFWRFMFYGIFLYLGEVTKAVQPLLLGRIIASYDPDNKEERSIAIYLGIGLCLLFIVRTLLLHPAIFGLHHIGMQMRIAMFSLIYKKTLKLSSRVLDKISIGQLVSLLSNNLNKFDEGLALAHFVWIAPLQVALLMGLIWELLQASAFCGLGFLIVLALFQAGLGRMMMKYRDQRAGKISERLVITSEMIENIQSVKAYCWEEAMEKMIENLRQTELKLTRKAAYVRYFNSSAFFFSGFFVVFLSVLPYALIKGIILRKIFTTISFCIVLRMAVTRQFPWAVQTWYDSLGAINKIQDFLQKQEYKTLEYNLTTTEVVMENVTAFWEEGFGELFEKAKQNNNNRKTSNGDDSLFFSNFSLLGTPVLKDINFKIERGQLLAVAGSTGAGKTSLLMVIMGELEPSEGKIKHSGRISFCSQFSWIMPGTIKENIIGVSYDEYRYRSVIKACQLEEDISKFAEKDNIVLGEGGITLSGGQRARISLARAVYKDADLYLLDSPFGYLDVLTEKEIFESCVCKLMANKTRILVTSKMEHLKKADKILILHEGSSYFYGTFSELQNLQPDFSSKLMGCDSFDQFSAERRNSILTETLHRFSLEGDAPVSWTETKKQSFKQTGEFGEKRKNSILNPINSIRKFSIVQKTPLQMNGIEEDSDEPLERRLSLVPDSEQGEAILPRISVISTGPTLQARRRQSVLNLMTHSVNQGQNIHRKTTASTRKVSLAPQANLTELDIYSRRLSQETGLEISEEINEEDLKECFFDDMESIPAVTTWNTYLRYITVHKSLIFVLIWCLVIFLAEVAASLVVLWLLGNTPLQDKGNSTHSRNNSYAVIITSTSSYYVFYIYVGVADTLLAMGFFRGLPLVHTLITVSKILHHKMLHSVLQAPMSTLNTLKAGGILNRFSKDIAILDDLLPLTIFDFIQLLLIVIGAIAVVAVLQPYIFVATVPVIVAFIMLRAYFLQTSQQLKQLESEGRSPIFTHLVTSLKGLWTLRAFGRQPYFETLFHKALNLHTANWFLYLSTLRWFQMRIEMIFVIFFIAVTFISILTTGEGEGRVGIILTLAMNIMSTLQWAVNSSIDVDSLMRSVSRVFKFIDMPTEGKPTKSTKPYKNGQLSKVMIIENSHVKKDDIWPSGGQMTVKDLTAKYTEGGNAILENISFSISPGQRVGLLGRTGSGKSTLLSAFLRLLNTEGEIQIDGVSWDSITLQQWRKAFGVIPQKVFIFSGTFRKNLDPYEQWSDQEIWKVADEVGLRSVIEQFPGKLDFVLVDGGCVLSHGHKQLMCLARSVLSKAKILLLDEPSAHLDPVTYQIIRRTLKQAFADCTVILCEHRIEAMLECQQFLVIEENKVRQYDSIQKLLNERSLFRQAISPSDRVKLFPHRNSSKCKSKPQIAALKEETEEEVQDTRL
T1 sequence (P13569 with tags, fused parts or gaps DEL508-508): as above

Turning to `CS(=O)(=O)NC(=O)c1cc(C2CCC(N3CCOCC3)CC2)c2c(C3CCC3)nn(-c3ccccc3)c2n1` (centres unmarked) [Compound 648, 3-cyclobutyl-N-(methanesulfonyl)-4-[4-(morpholin-4-yl)cyclohexyl]-1-phenyl-1H-pyrazolo[3,4-b]pyridine-6-carboxamide], in test [1], the “% Activity at 1 μM (AUC**)” value is listed as 366.0679%. Moreover, the “% Activation” value is 109.65% in test [2] and 288.85% in test [3]. The EC50 – broadly, the concentration at which the effect is half-maximal – in test [2] turned out to be 0.316 µM; in test [3], 0.11 µM.

Consider `CN(C)S(=O)(=O)NC(=O)c1cc(C2CCC(N3CCOCC3)CC2)c2c(C3CCC3)nn(-c3ccccc3)c2n1` (centres unmarked) [Compound 649, 3-cyclobutyl-N-(dimethylsulfamoyl)-4-[4-(morpholin-4-yl)cyclohexyl]-1-phenyl-1H-pyrazolo[3,4-b]pyridine-6-carboxamide], for which the “% Activity at 3 μM (AUC**)” value in test [1] came to 224.5026%. In test [2], the “% Activation” value was determined as 69.12% and the EC50 was found to be 0.37 µM. Besides, in test [3], the “% Activation” value stood at 231.7% and the EC50 amounted to 0.152 µM.

For the compound `CN(C(=O)c1cc(N2CCC(N3CCOCC3)CC2)c2c(C3CCC3)nn(-c3ccc(F)cc3)c2n1)S(C)(=O)=O` [Compound 654, 3-cyclobutyl-1-(4-fluorophenyl)-N-(methanesulfonyl)-N-methyl-4-[4-(morpholin-4-yl)piperidin-1-yl]-1H-pyrazolo[3,4-b]pyridine-6-carboxamide], the “% Activity at 1 μM (AUC**)” value in test [1] is reported as 293.3333%. The “% Activation” value worked out at 73.925% in test [2] and 347.6% in test [3]. The EC50 amounted to 5.08 µM in test [2] and 0.114 µM in test [3].

For the compound `CCS(=O)(=O)N(C)C(=O)c1cc(N2CCC(CN3CCCC3)CC2)c2c(C3CCC3)nn(-c3ccccc3)c2n1` [Compound 659, 3-cyclobutyl-N-(ethanesulfonyl)-N-methyl-1-phenyl-4-{4-[(pyrrolidin-1-yl)methyl]piperidin-1-yl}-1H-pyrazolo[3,4-b]pyridine-6-carboxamide], the “% Activity at 3 μM (AUC**)” value in test [1] is 251.6549%. Besides, the “% Activation” value in test [2] was 96.44%; in test [3], 290.95%. In addition, the concentration giving a half-maximal response (EC50) in test [2] came to 0.142 µM; in test [3], 0.13 µM.

The values above are taken from patent US10259810B2, “N-sulfonylated pyrazolo[3,4-b]pyridin-6-carboxamides and method of use” (AbbVie S.à.r.l., priority 2015, dated 2019).
